Experimental data reported in patent publication US20090196918A1, “Liposomal formulations of hydrophobic lactone drugs in the presence of metal ions” (University of Kentucky Research Foundation, priority 2008, published 2009).

Experiments:
[1] = animal data, intravenous administration; cited from earlier work
[2] = Drug loading of DB-67 into liposomes by passive encapsulation
[3] = Release of DB-67 from liposomes (dialysis at 37° C., HPLC analysis); assay type: physicochemical
Method: The drug/cyclodextrin solution was used to hydrate phospholipids (DSPC, 40 mg/ml) with vigorous shaking at 60° C. to form a suspension of multilamellar vesicles. The suspension was extruded through a high-pressure extruder to form unilamellar vesicles. […] A small amount of this micellar solution was added to the unilamellar vesicles following extrusion and incubated at 60° C. for 5 min. The vesicles were then cooled at room temperature and stored below 5° C. until use. Prior to use, liposomes were separated from unentrapped drug by passing through a gel filtration column which was pre-equilibrated with pH 7.4 “carbonated” phosphate buffered saline (PBS). “Carbonated” PBS was prepared at physiological concentration of carbonate, phosphate and sodium chloride such that the total solute concentration of the buffer was isoosmotic with that of whole blood. […] 100 μl samples were taken from inside the dialysis tube at various time intervals and diluted into 900 μl of ice-cold solution of methanol and acetonitrile (2:1, v/v) at -25° C. Following dilution samples were stored at -25° C. until HPLC analysis. […] Liposomes were separated from the unentrapped drug and HPβCD by size exclusion chromatography on Sephadex® columns. […] The pipette tip used for sampling was washed in the same quenching solution to transfer any adsorbed drug. […] Following dialysis, samples were withdrawn from the dialysis tube, diluted into methanol, and stored at -25° C. until HPLC analysis. […] The sampling and processing conditions were the same as in the pH-permeability studies described earlier. The effect of varying intravesicular pH on the apparent permeability was probed only at a single (50 mM) cyclodextrin concentration.

CC[C@@]1(O)C(=O)OCc2c1cc1n(c2=O)Cc2c-1nc1ccc(O)cc1c2[Si](C)(C)C(C)(C)C [DB-67, 7-t-butyldimethylsilyl-10-hydroxycamptothecin]
lactone to total AUC [1]: > 90%
DB-67 concentration of liposome suspension that could be prepared (loading) ([2]; absence of cyclodextrin, all drug is entrapped): 0.05 mg/mL
DB-67 concentration of liposome suspension that could be prepared (loading) ([2]; intraliposomal pH increased to 9.5, with hydroxypropyl-β-cyclodextrin): 1.4 mg/mL
drug retention in liposomes as a function of pH ([3]; increasing pH, intravesicular cyclodextrin constant at 50 mM (FIG. 4)): increases drug retention
release profile of DB-67 from liposomes ([3]; liposomes prepared at pH 4, citrate buffer, 0.1 M hydroxypropyl-β-cyclodextrin (FIG. 2)): uniform release profile
release profile of DB-67 from liposomes ([3]; liposomes prepared at pH 7.4, citrate buffer, 0.1 M hydroxypropyl-β-cyclodextrin (FIG. 3)): uniform release
